Values of other authors in patent publication US20120258202A1, “Compositions and Methods for an Appetite Suppressant and a Nutrient Absorption Blocker with Treatment To Raise Metabolic Rate” (priority 2011, published 2012).

Legend:
[1] = after ORLISTAT was stopped
[2] = laboratory animals
[3] = people taking sibutramine; control 10.0%

SMILES: CNCCC(Oc1ccc(C(F)(F)F)cc1)c1ccccc1 (stereo not drawn) [fluoxetine, Fluoxetine]
- interruption of the treatment due to anxiety, insomnia, and nervousness (each) (in vivo): 1-2%
- anorexia (prescribing information, placebo 3%): 10%
- somnolence (prescribing information, placebo 5%): 12%
- anxiety (prescribing information, placebo 6%): 12%
- nausea (prescribing information, placebo 9%): 22%
- insomnia (prescribing information, placebo 10%): 19%

SMILES: CCCCCCCCCCC[C@@H](C[C@@H]1OC(=O)[C@H]1CCCCCC)OC(=O)[C@H](CC(C)C)NC=O [orlistat, tetrahydrolipstatin]
- weight regained after drug was stopped, of the weight lost [1]: up to 35%

SMILES: CN[C@H]1CC[C@@H](c2ccc(Cl)c(Cl)c2)c2ccccc21 [sertraline, Sertraline]
- body weight [2]: resulted in weight loss

SMILES: CC(C)CC(N(C)C)C1(c2ccc(Cl)cc2)CCC1 (stereo not drawn) [sibutramine, Sibutramine]
- cardiovascular events [3]: 11.4%
